What all share (format): biochemical
For one experiment, the target named is Btk (Homo sapiens, UniProt Q06187). Briefly: Btk kinase activity, TR-FRET assay. The following applies: read-out: Btk (IC50). In a few lines: (§1)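 Enzyme (Btk 0.5 nM; Lck 6 nM) reacted 1 h with inhibitor, ATP at Km and biotin-peptide substrate in pH 7.4 buffer, 10% DMSO. Phosphopeptide detected by Eu-p-Tyr100 antibody plus streptavidin-APC (665/615 nm). IC50 calculated from fitted Ki(app) via ATP/Km correction plus half total enzyme.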

The target of another experiment is Lck (Homo sapiens, UniProt P06239). Briefly: Lck kinase activity, TR-FRET assay. The following applies: read-out: LCK (IC50). The essentials: as §1
The target in another experiment is EGFR (Homo sapiens, UniProt P00533). Briefly: Inhibition of a panel of kinases, in vitro HotSpot kinase assay: EGFR. The protocol: (§2) The degree of inhibition of a panel of kinases is determined using the in vitro HotSpot kinase assay (purified enzymes, ^33P-ATP, an appropriate substrate and 1 uM ATP).
For the next experiment, the target named is T1, JAK3 (Homo sapiens, UniProt P52333).
T1 sequence (P52333 1-1124): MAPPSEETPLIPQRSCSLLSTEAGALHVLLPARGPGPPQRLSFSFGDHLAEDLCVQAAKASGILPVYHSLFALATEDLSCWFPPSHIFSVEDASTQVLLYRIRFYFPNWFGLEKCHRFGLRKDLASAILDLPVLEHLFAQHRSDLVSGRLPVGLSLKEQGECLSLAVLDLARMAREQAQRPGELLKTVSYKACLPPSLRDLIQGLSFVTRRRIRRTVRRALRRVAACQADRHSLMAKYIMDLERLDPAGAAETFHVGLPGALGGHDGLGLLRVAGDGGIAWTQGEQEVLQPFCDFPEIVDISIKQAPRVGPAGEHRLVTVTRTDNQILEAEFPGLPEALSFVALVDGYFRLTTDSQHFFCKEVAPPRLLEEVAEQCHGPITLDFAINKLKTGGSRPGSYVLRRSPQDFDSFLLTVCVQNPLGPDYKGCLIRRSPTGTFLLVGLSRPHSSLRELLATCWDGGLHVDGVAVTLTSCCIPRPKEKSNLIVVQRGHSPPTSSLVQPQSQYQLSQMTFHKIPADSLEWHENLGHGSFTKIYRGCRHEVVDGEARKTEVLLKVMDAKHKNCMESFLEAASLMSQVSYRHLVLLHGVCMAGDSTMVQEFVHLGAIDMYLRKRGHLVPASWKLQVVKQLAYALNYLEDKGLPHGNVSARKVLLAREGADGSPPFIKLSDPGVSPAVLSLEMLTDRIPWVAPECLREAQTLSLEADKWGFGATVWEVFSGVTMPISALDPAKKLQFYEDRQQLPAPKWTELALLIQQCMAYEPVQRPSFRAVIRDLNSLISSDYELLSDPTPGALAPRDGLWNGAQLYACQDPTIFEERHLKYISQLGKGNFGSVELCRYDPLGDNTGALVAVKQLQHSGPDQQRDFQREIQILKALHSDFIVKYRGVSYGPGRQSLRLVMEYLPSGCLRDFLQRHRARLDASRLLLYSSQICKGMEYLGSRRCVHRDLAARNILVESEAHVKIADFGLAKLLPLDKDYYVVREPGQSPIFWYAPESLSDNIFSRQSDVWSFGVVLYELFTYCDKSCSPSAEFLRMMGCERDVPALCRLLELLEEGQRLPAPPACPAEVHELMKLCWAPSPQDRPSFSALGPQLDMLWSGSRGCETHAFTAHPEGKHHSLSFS
Nature of the experiment: Inhibition of a panel of kinases, in vitro HotSpot kinase assay: JAK3. The protocol: as §2

Each structure is given as a SMILES string.

Sequence of Lck (P06239 whole entry, species assumed): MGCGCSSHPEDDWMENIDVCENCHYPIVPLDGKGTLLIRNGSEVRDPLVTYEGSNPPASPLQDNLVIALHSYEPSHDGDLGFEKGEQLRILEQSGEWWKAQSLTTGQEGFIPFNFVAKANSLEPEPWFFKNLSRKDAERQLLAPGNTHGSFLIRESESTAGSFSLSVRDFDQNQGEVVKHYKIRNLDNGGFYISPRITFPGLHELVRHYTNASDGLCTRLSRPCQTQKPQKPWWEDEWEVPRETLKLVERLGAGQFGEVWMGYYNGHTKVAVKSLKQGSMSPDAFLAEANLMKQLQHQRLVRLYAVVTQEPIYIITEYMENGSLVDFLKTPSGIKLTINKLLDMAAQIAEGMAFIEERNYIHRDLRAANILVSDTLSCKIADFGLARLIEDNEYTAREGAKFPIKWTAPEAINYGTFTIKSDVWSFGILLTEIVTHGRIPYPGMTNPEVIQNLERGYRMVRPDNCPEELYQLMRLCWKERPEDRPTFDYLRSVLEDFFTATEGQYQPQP
Sequence of Btk (Q06187 whole entry): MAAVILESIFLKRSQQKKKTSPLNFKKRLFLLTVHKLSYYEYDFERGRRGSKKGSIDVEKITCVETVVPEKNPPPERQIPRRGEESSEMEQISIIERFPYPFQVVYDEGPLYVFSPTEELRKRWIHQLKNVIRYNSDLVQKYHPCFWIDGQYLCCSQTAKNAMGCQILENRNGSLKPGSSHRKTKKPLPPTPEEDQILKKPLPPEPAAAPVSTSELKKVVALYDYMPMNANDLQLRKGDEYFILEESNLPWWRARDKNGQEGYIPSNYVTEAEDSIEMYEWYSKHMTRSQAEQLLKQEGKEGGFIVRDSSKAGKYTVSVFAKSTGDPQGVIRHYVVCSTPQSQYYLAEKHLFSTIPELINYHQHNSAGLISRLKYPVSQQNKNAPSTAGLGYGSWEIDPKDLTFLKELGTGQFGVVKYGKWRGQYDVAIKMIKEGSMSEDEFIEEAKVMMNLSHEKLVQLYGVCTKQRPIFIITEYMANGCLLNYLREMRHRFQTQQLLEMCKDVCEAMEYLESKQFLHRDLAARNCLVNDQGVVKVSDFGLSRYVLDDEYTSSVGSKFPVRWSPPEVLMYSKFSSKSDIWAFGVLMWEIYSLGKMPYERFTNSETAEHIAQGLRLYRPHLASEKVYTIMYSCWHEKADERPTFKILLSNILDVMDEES
Sequence of EGFR (P00533 25-1210): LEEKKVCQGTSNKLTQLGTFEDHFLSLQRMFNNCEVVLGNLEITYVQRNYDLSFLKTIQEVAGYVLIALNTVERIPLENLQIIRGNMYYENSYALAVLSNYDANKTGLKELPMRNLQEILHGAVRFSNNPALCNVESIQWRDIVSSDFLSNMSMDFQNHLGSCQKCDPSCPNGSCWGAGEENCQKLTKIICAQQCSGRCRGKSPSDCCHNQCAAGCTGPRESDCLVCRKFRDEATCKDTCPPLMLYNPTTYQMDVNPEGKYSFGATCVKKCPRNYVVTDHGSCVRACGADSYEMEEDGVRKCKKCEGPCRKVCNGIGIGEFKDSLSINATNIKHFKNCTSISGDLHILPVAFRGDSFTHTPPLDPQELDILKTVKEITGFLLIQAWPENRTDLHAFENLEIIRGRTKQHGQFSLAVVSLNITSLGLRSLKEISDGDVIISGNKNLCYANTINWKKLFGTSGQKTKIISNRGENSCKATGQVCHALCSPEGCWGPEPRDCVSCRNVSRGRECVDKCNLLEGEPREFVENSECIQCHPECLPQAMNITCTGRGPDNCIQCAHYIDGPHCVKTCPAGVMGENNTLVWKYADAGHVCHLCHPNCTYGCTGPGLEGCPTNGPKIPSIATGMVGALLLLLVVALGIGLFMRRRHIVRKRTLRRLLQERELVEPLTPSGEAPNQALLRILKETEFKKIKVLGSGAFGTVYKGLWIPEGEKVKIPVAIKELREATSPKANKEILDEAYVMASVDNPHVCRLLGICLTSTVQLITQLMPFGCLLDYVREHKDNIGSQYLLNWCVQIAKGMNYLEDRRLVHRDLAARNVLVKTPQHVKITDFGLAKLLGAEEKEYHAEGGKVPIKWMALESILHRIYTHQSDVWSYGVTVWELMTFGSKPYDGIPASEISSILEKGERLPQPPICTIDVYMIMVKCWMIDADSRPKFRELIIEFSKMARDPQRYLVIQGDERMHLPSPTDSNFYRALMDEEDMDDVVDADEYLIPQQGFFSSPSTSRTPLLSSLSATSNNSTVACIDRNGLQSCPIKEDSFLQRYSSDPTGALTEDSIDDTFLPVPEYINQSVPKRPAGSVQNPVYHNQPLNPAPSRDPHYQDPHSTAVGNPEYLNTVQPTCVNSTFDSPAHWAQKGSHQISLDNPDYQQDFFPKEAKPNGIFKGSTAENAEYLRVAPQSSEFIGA

On to `C=CC(=O)N1CCC[C@@H](Nc2n[nH]c3nccc(Oc4ccc(C(=O)Nc5nc(C)cs5)cc4)c23)C1` [compound 143], for which the IC50 at Btk is less than 100 nM; on Lck it was 1000 to 10000 nM; on EGFR it was 1000 to 10000 nM; against JAK3 it was less than 100 nM.

With `CC#CC(=O)N1CCC[C@@H](Nc2n[nH]c3nccc(Oc4ccc(C(=O)Nc5cc(C)ccn5)cc4)c23)C1` [compound 280, (R)-4-(3-(1-but-2-ynoylpiperidin-3-ylamino)-1H-pyrazolo[3,4-b]pyridin-4-yloxy)-N-(4-methylpyridin-2-yl)benzamide], the IC50 on Btk is less than 100 nM; on Lck, 100 to 1000 nM; against EGFR, greater than 10000 nM; against JAK3, greater than 10000 nM.

With `CN(C)C(=O)N1CCC[C@@H](Nc2n[nH]c3nccc(Oc4ccc(C(=O)Nc5ccccn5)cc4)c23)C1` [compound 233, (3R)-N,N-dimethyl-3-[(4-{4-[(pyridin-2-yl)carbamoyl]phenoxy}-1H-pyrazolo[3,4-b]pyridin-3-yl)amino]piperidine-1-carboxamide], the IC50 on Btk was less than 100 nM; on Lck, greater than 10000 nM; against EGFR, greater than 10000 nM; at JAK3, greater than 10000 nM.

On to `Cc1ccnc(NC(=O)c2ccc(Oc3ccnc4[nH]nc(N[C@@H]5CCCN(C(=O)CCCN(C)C)C5)c34)cc2)c1` [compound 95], for which the IC50 on Btk is less than 100 nM; at Lck, less than 100 nM; against EGFR it was 1000 to 10000 nM; against JAK3, greater than 10000 nM.

For `Cc1ccnc(NC(=O)c2ccc(Oc3ccnc4[nH]nc(N[C@@H]5CCCN(C(=O)C6CCCC6)C5)c34)cc2)c1` [compound 107, 4-[(3-{[(3R)-1-cyclopentanecarbonylpiperidin-3-yl]amino}-1H-pyrazolo[3,4-b]pyridin-4-yl)oxy]-N-(4-methylpyridin-2-yl)benzamide], the IC50 at Btk was less than 100 nM; at Lck it was 1000 to 10000 nM; against EGFR it was greater than 10000 nM; against JAK3, greater than 10000 nM.

For `CCNC(=O)N1CCC[C@@H](Nc2n[nH]c3nccc(Oc4ccc(C(=O)Nc5cc(C(F)(F)F)ccn5)cc4)c23)C1` [compound 207, (3R)-N-ethyl-3-{[4-(4-{[4-(trifluoromethyl)pyridin-2-yl]carbamoyl}phenoxy)-1H-pyrazolo[3,4-b]pyridin-3-yl]amino}piperidine-1-carboxamide], the IC50 is less than 100 nM at Btk, 100 to 1000 nM at Lck, 1000 to 10000 nM on EGFR and greater than 10000 nM against JAK3.

Regarding `CCOP(=O)(CC(=O)N1CCC[C@@H](Nc2n[nH]c3nccc(Oc4ccc(C(=O)Nc5cc(C)ccn5)cc4)c23)C1)OCC` [compound 272, (R)-diethyl 2-(3-(4-(4-(4-methylpyridin-2-ylcarbamoyl)phenoxy)-1H-pyrazolo[3,4-b]pyridin-3-ylamino)piperidin-1-yl)-2-oxoethylphosphonate], the IC50 is less than 100 nM at Btk, 100 to 1000 nM on Lck, greater than 10000 nM against EGFR and greater than 10000 nM at JAK3.

On to `C=CC(=O)N1CCC[C@@H](Nc2n[nH]c3nccc(Oc4cccc(C(=O)Nc5cc(C(F)(F)F)ccn5)c4)c23)C1` [compound 191], for which the IC50 was less than 100 nM on Btk, 100 to 1000 nM at Lck, less than 100 nM on EGFR and less than 100 nM against JAK3.

Take `COCCN(C)C/C=C/C(=O)N1CC[C@@H](Nc2n[nH]c3nccc(Oc4ccc(Oc5ccccc5)cc4)c23)C1` [compound 9, (2E)-4-[(2-methoxyethyl)(methyl)amino]-1-[(3R)-3-{[4-(4-phenoxyphenoxy)-1H-pyrazolo[3,4-b]pyridin-3-yl]amino}pyrrolidin-1-yl]but-2-en-1-one]: the IC50 on Btk was less than 100 nM; at Lck it was less than 100 nM; on EGFR, less than 100 nM; on JAK3, greater than 10000 nM.

In the case of `Cc1cccc(NC(=O)c2ccc(Oc3ccnc4[nH]nc(N[C@@H]5CCCN(C(=O)C6(C)COC6)C5)c34)cc2)n1` [compound 113, 4-[(3-{[(3R)-1-(3-methyloxetane-3-carbonyl)piperidin-3-yl]amino}-1H-pyrazolo[3,4-b]pyridin-4-yl)oxy]-N-(6-methylpyridin-2-yl)benzamide], the IC50 at Btk was 100 to 1000 nM; at Lck, 1000 to 10000 nM; against EGFR, greater than 10000 nM; on JAK3, greater than 10000 nM.

The values above are taken from US9580416B2, “Inhibitors of Bruton's tyrosine kinase” (PHARMACYCLICS LLC, priority 2014, dated 2017).
